Data taken from patent US20240269337A1, “METHOD AND SYSTEM FOR COATING FILTER MEDIA” (MOLECULAR PLASMA GROUP SA, priority 2021, published 2024).
Read-outs that look alike come from different tables or passages of the source.

Tested on: Bacteriophage MS2
Type: cell-based
Settings: for LOG Reduction: plasma coating of precursor on Tyvek substrate, (LOD) = limit of detection

Molecule: C=CC(=O)NCCC[N+](C)(C)C.[Cl-] [APTAC, (3-Acrylamidopropyl)trimethylammonium chloride]
- LOG Reduction: 2.1 log

Molecule: CCCCCCCCCCCCCCCCCC[N+](C)(C)CCC[Si](OC)(OC)OC.[Cl-] [SiQAM, Dimethyloctadecyl[3-(trimethoxysilyl)propyl] ammonium chloride]
- LOG Reduction: 1.56 log

Molecule: Citric Acid
- Avg. MS2 (log red) (Filter media sample, 6 passes): 2.15 log red
- MS2 neutralized (%) (Filter media sample, 6 passes): 99.29%
- Avg. MS2 (log red) (Filter media sample, 10 passes): 2.72 log red
- MS2 neutralized (%) (Filter media sample, 10 passes): 99.81%
- Avg. MS2 (log red) (Filter media sample, 20 passes): 2.46 log red
- MS2 neutralized (%) (Filter media sample, 20 passes): 99.65%
- Avg. MS2 (log red) (Outer wave sample, 6 passes): 2.13 log red
- MS2 neutralized (%) (Outer wave sample, 6 passes): 99.26%
- Avg. MS2 (log red) (Outer wave sample, 10 passes): 1.96 log red
- MS2 neutralized (%) (Outer wave sample, 10 passes): 98.90%
- Avg. MS2 (log red) (Outer wave sample, 20 passes): 2.71 log red
- MS2 neutralized (%) (Outer wave sample, 20 passes): 99.81%
- LOG Reduction: >5.0 (LOD) log

Molecule: Benzalkonium chloride [reference compound]
- LOG Reduction: >3.8 (LOD) log
